This note sets out measurements from PubChem BioAssay AID2060355 (Molecular Pharmacology Branch, DTP, NCI, 2025).

Where “and” joins values, the source holds several entries; their conditions need not be identical. Identical values can stand only once.

This experiment relates to 485368-065-R4-J2-PDC spheroids with HUVEC/MSC, viability. As to the kind of experiment: Anticancer human tumor 485368-065-R4-J2-PDC patient-derived pancreatic carcinoma cell line growth inhibition [TAK]. The note with it: for viability, T/C: stronger effect = lower value. From the text:
Combinatorial screen of targeted agents with TAK-243 and ipatasertib in multi-cell type tumor spheroids
A high-throughput screen of multi-cell type tumor spheroids was designed to identify active combinations of targeted small molecules and TAK-243 or ipatasertib. Complex spheroids include a stromal component modeled by human endothelial cells (HUVEC) and fibroblasts modeled by human mesenchymal stem cells (MSCs). The concentration ranges selected for each drug and investigational agent were based upon clinically achievable concentrations if the clinical Cmax of the agent was known.
Compounds. The drugs and investigational agents: TAK-243 (785004), ipatasertib (767898), everolimus (733504), selumetinib (741078), bortezomib (756655), trametinib (758246), ixazomib (758254), vemurafenib (761431), dabrafenib (764134), sapanisertib (764658), alpelisib (765974), and copanlisib (816437), were obtained from the National Cancer Institute (NCI) Developmental Therapeutics Program Chemical Repository. The FDA-approved anticancer drug set is available from the NCI Developmental Therapeutics Program. […] The stock solutions were prepared in dimethyl sulfoxide (DMSO, Sigma-Aldrich, St. Louis, MO, cat. D2650) at 800-fold the tested concentration and stored at -70 degrees C prior to their use. All drugs and investigational agents were tested over a range starting from a high concentration at or near the clinical Cmax and decreasing in half-log increments. If the clinical Cmax for an agent had not been determined, the highest concentration tested was 10 microM.
NCI60 Cell Culture. NCI60 cell lines were obtained from the NCI Developmental Therapeutics Program Tumor Repository. For each lot of cells, the Repository performed Applied Biosystems AmpFLSTR Identifiler testing with PCR amplification to confirm consistency with the published Identifier STR profile for each cell line. Cells were kept in continuous culture for no more than 20 passages. The optimal seeding densities for each of the cell lines at each time point assessed were determined prior to performing the concentration response studies. Briefly, the NCI60 human tumor lines were grown as monolayers in RPMI 1640 medium supplemented with 10% FBS and 2 mmol/L L-glutamine.
An additional 2 lines were from the NCI60 cell line panel including melanomas, MALME-3M and SK-MEL-2. Pooled donor human umbilical vein endothelial cells (HUVEC, Lonza, cat. CC-2519) and human mesenchymal stem cells (hMSC, Lonza, cat. PT-2501) were purchased from Lonza (Walkersville, MD).
PDMR cell lines were grown in complete medium (DC medium): Dulbecco's modified Eagle's medium (DMEM)/F12 supplemented with 5% fetal bovine serum (FBS), 2 mM L-glutamine, 100 U/mL penicillin and 100 µg/ml streptomycin, 0.4 µg/ml hydrocortisone, 10 ng/ml epidermal growth factor (EGF) recombinant human protein, 24 µg/mL adenine, and 0.1 mg/mL primocin. During culture from frozen stock vials, PDMR cells were cultured in the same medium containing 10 µM Y-27632 (see Table 3). The PDCs were cultured in complete DMEM/F12 media without 10 microM Y-27632 dihydrochloride for at least two passages prior to the screen. The pooled donor HUVEC and hMSC were cultured in endothelial cell growth medium 2 (PromoCell, Heidelberg, Germany, cat. C-22011) and mesenchymal stem cell growth medium 2 (PromoCell, cat. C-28009), respectively. For all experiments, HUVEC and hMSC were used at passages </=5.
For the pre-screen, cell seeding densities were determined from a titration spanning the range from 5,000 to 313 cells per well. The mct-spheroids including 60% malignant cells, 25% HUVEC and 15% MSC dispensed as a mixture into U-bottom Ultra-Low Attachment 384-well plates (Corning, NY)
High-throughput Drug Combination Screening.
Prior to their inoculation into 384-well plates, malignant cells, HUVEC, and hMSC were removed from T flasks using TrypLE express (Thermo Fisher Scientific, cat. 12605036) and harvested by centrifugation for 5 min at 233 x g. […]
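Also: spheroids exposed to compounds for seven days before readout.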

The term viability, T/C denotes the result in the treated group divided by that in the control group, in per cent. In general, IC50 refers to the concentration that gives 50% inhibition. With `CC(=O)Nc1cccc(-n2c(=O)n(C3CC3)c(=O)c3c(Nc4ccc(I)cc4F)n(C)c(=O)c(C)c32)c1`, the viability, T/C is, setting by setting: (compound 94.9 pM) 99.6% and 93%; (compound 0.0003 µM) 77.8% and 84%; (compound 0.000949 µM) 63.6% and 75.9%; (compound 0.003 µM) 62.5% and 71%; (compound 0.00949 µM) 45.7% and 50.3%; (compound 0.03 µM) 29.4% and 30.5%. Moreover, the IC50 (curve of compound) is 5.19 nM and 10.4 nM.

Regarding `CC(C)(C)c1nc(-c2cccc(NS(=O)(=O)c3c(F)cccc3F)c2F)c(-c2ccnc(N)n2)s1`, the viability, T/C runs as follows: (compound 0.0316 µM) 111% and 113%; (compound 0.1 µM) 101% and 105%; (compound 0.316 µM) 84.3% and 89.6%; (compound 1 µM) 57.7% and 75.8%; (compound 3.16 µM) 57% and 60.5%; (compound 10 µM) 49.8% and 54.4%. The IC50 (curve of compound) was greater than 10000 nM.

As to `CC(C)CC(NC(=O)C(Cc1ccccc1)NC(=O)c1cnccn1)B(O)O` (stereo unspecified), the viability, T/C is, setting by setting: (compound 31.6 pM) 108% and 103%; (compound 0.0001 µM) 101%; (compound 0.000316 µM) 96.3% and 89.7%; (compound 0.001 µM) 99% and 102%; (compound 0.00316 µM) 107% and 114%; (compound 0.01 µM) 9.55% and 6.03%. In addition, where the note is “curve of compound”, the IC50 is 6.05 nM and 5.9 nM.

Regarding `CC(C)CC(NC(=O)CNC(=O)c1cc(Cl)ccc1Cl)B1OC(=O)CC(CC(=O)O)(C(=O)O)O1` (stereo unspecified), the viability, T/C (compound 0.000316 µM) is 94.9% and 95.6%; the viability, T/C (compound 0.001 µM) was 102% and 98.5%; the viability, T/C (compound 0.00316 µM) is 94.6% and 94.7%; the viability, T/C (compound 0.01 µM) is 108% and 110%; the viability, T/C (compound 0.0316 µM) is 61.6% and 60.1%; the viability, T/C (compound 0.1 µM) is 9.41% and 9.34%. For the same compound, where the note is “curve of compound”, the IC50 is 40.8 nM and 39.7 nM.

With `CC(C)NCC(C(=O)N1CCN(c2ncnc3c2C(C)CC3O)CC1)c1ccc(Cl)cc1` (stereo unspecified), the viability, T/C was 95.9% [middle of 10 runs] (compound 0.3 µM); 94.7% [middle of 10 runs] (compound 0.949 µM); 99.1% [middle of 10 runs] (compound 3 µM); 91.6% [middle of 10 runs] (compound 9.49 µM); 78% [middle of 10 runs] (compound 30 µM). For the setting “compound alone, run of 02/20/2020”, the IC50 is greater than 30000 nM.

With `CC(C)n1nc(-c2ccc3oc(N)nc3c2)c2c(N)ncnc21`, the viability, T/C is 102% and 92.5% (compound 0.000316 µM); 103% and 94.1% (compound 0.001 µM); 89.2% and 90.2% (compound 0.00316 µM); 87.3% and 94.1% (compound 0.01 µM); 63.8% and 72.8% (compound 0.0316 µM); 44.3% and 46.3% (compound 0.1 µM). For the same compound, the IC50 (curve of compound) was 72.5 nM and 85 nM.

Turning to `CCCS(=O)(=O)Nc1ccc(F)c(C(=O)c2c[nH]c3ncc(-c4ccc(Cl)cc4)cc23)c1F`, the viability, T/C (compound 0.316 µM) was 110% and 92.4%; the viability, T/C (compound 1 µM) is 102% and 117%; the viability, T/C (compound 3.16 µM) is 89.2% and 101%; the viability, T/C (compound 10 µM) is 43.3% and 56.3%; the viability, T/C (compound 31.6 µM) is 99.8% and 46.6%; the viability, T/C (compound 100 µM) is 91.2% and 106%. Also, under “curve of compound”, the IC50 was greater than 100000 nM.

As to `COC1CC2CCC(C)C(O)(O2)C(=O)C(=O)N2CCCCC2C(=O)OC(C(C)CC2CCC(OCCO)C(OC)C2)CC(=O)C(C)C=C(C)C(O)C(OC)C(=O)C(C)CC(C)C=CC=CC=C1C` (stereo unspecified), the viability, T/C was 89.3% and 76.4% (compound 0.000316 µM); 95.4% and 82.8% (compound 0.001 µM); 91.1% and 89.1% (compound 0.00316 µM); 92.2% and 96.3% (compound 0.01 µM); 92.8% and 90.3% (compound 0.0316 µM); 88.8% and 86.1% (compound 0.1 µM). Also, where the note is “curve of compound”, the IC50 is greater than 100 nM.

Consider `COc1c(OCCCN2CCOCC2)ccc2c3n(c(=NC(=O)c4cnc(N)nc4)nc12)CCN3`, for which the viability, T/C is 95.2% and 89.6% (compound 0.00316 µM); 74.6% and 75.8% (compound 0.01 µM); 72.5% and 70.2% (compound 0.0316 µM); 56.2% and 51.2% (compound 0.1 µM); 32.7% and 29.9% (compound 0.316 µM); 29.5% and 26.7% (compound 1 µM). Under “curve of compound”, the half-maximal inhibitory concentration (IC50) is 126 nM and 96.9 nM.

Regarding `Cc1nc(NC(=O)N2CCCC2C(N)=O)sc1-c1ccnc(C(C)(C)C(F)(F)F)c1` (stereo unspecified), the viability, T/C (compound 0.0316 µM) is 100% and 99.2%; the viability, T/C (compound 0.1 µM) is 92.8% and 93%; the viability, T/C (compound 0.316 µM) was 81.5% and 77.7%; the viability, T/C (compound 1 µM) is 81.9% and 78.4%; the viability, T/C (compound 3.16 µM) is 73.4% and 71.8%; the viability, T/C (compound 10 µM) was 51% and 48.5%. Also, for the setting “curve of compound”, the half-maximal inhibitory concentration (IC50) was greater than 10000 nM.

For the compound `Cn1cnc2c(F)c(Nc3ccc(Br)cc3Cl)c(C(=O)NOCCO)cc21`, the viability, T/C reads like this: (compound 0.00949 µM) 70.9% and 67.5%; (compound 0.03 µM) 68.9% and 66.8%; (compound 0.0949 µM) 76.3% and 60.8%; (compound 0.3 µM) 64.8% and 51%; (compound 0.949 µM) 54.1% and 43.5%; (compound 3 µM) 36.9% and 30.2%. Besides, the half-maximal inhibitory concentration (IC50) (curve of compound) was 1220 nM and 405 nM.
